Measured values: article PMC8314276, “A Commercial Extract of Cyanotis arachnoidea Roots as a Source of Unusual Ecdysteroid Derivatives with Insect Hormone Receptor Binding Activity” (Journal of Natural Products, 2021)
Values joined by “and” are separate entries in the source; they are usually repeats but may differ in a detail not shown here. Identical values can stand only once. Like-named read-outs stand apart in the source and are kept apart here.

Legend:
[1] = biological target: T1, insect ecdysteroid receptor (EcR) (Spodoptera frugiperda, UniProt Q8MWR2); test: EcR binding assay ([3H]PonA displacement in Sf-9 cells); settings: for IC50: inhibition of [3H]PonA binding; for inhibition at 25 µM: read-out: inh% at 25 μM; for EcR binding activity in words: [3H]PonA binding; for EcR binding potency/affinity relative to 20E: fold higher than 20E
T1 construct: To an Sf-9 cell suspension (400 μL; (2.0–3.0) × 10^6 cells/mL) in a disposable culture tube; endogenous in cells; host or cells: Sf-9 cells
T1 sequence (Q8MWR2 1-403): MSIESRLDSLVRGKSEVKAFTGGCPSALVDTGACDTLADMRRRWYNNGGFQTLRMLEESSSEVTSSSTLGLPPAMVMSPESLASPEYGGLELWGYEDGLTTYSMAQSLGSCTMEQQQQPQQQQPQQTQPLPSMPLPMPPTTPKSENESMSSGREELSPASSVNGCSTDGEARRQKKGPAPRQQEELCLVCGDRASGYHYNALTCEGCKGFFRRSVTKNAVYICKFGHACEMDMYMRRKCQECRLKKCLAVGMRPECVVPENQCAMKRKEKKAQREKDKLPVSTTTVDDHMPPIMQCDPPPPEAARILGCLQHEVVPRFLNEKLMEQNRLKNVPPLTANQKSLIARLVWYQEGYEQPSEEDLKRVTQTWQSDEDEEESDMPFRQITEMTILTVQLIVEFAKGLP
Method: Tritiated PonA ([^3H]PonA; 3.5 TBq/mmol) was custom synthesized by American Radiolabeled Chemicals, Inc. (St. Louis, MO, USA). A stock solution of [^3H]PonA (30 000 dpm/μL, ∼0.1 μM) was prepared in 70% aqueous EtOH. Cold PonA and 20E were obtained from Enzo Biochem Inc. (New York, NY, USA) and Sigma-Aldrich Co. (St. Louis, MO, USA), respectively. Tebufenozide was obtained from stock samples. All test compounds were dissolved in DMSO. An Sf-9 cell line was cultured in EX-CELL 420 medium (SAFC Biosciences, Inc., Lenexa, KS, USA) supplemented with 10% fetal bovine serum.
The binding assay was performed as described previously with some modifications.[43],[44] To an Sf-9 cell suspension (400 μL; (2.0–3.0) × 10^6 cells/mL) in a disposable culture tube (12 mm × 75 mm) was added a test compound solution (1 μL), followed by a [^3H]PonA solution (2 μL, 60 000 dpm). After incubation at 25 °C for 30 min, the cell suspension was diluted with water (3 mL) and filtered through a glass fiber filter GF/B (25 mm; Whatman plc, Maidstone, UK). The filter was washed with water (2 × 3 mL), dried, and transferred to a glass vial. To the vial were added 3 mL of Insta-Gel Plus (PerkinElmer Inc., Waltham, MA, USA), and the radioactivity was measured with an LSC-8000 counter (Aloka, Tokyo, Japan). DMSO and PonA (final concentration: 2.7 μM) were used to determine the total and nonspecific binding, respectively. The test compounds were first screened at 25 μM, and the compounds with an inhibition rate of ≥50% were subjected to concentration–response experiments. The 50% inhibition concentration for [^3H]PonA binding [IC50 (M)] was determined using probit analysis,[45] and the logarithm of its reciprocal, pIC50, was used as the index of the binding affinity.

EcR = biological target: T2, EcR (Spodoptera frugiperda, UniProt Q8MWR2); test: Reporter gene assay (hsp27 ecdysone response element/firefly luciferase) in Sf-9 cells; format: cell-based, insect; settings: for agonistic activity in reporter gene assay at 0.1 μM / agonistic activity in reporter gene assay at 1 μM: Sf-9 cells, luciferase reporter; for agonist/antagonist classification: binding assay combined with reporter gene assay
T2 sequence (Q8MWR2 1-403): T1 sequence (Q8MWR2 1-403)
Method: The reporter gene assay was performed in Sf-9 cells according to a previously reported method.[46] Briefly, a reporter plasmid was constructed from pBmbA/hsp27/firefly luciferase (hsp27/Fluc), in which seven repeats of hsp27 ecdysone response element were inserted. This plasmid was a kind gift from Dr. Luc Swevers (Institute of Biosciences & Applications, National Center for Scientific Research “Demokritos”, Athens, Greece). The plasmid was amplified in Escherichia coli and purified using a QIAGEN plasmid midi kit (QIAGEN GmbH, Hilden, Germany). A cell suspension (approximately 2.0 × 10^6 cells/mL; 400 μL) was added to each well of a 24-well plate, and it was incubated for 1 h. Then, 200 μL of a mixture of plasmids and TransFast transfection reagent (Promega; Madison, WI, USA) was added to each well. After incubating for 24 h, 6 μL of a solution of test compound (1% v/v) was added and incubated. After 48 h, the medium in each well was removed with a pipet. Cells were lysed by adding 100 μL/well of Passive Lysis Buffer and incubating for 15 min at 25 °C. The lysate (20 μL) was transferred to a 96-well microplate for the luciferase assay. Chemical luminescence was measured using a 96-microplate GLOMAX luminometer (Promega), according to the manufacturer’s instructions.

[2] = pIC50 (M), ecdysteroid receptor binding affinity, Sf-9 cell suspension, 25 °C, 30 min, probit analysis

| SMILES | IC50 [1, 2] [M] | inhibition at 25 µM [1] [%] | EcR binding activity in words ([1]; Sf-9 cells) | agonistic activity in reporter gene assay at 0.1 μM (EcR) | further results |
| --- | --- | --- | --- | --- | --- |
| CC(C)(O)CC[C@@H](O)[C@](C)(O)[C@H]1CC[C@@]2(O)C3=CC(=O)[C@@H]4C[C@@H](O)[C@@H](O)C[C@]4(C)[C@H]3CC[C@]12C [20E, 20-hydroxyecdysone, reference compound] |  |  |  |  | IC50 ([1]; Sf-9 cell suspension, 25 °C, 30 min, probit analysis, read-out: pIC50 (M), ecdysteroid receptor binding affinity (converted)): 1.66e-07 M |
| CC(C)(O)CC[C@@H](O)[C@](C)(O)[C@H]1CC[C@@H]2C3=C(CC[C@@]21C)[C@@]1(C)C[C@H](O)[C@H](O)CC1=C(O)C3=O [Compound 4, 14β-14,15-Dihydrocalonysterone] | ~2.51e-05 | 49.8 |  |  |  |
| CC(C)CC[C@@H](O)[C@](C)(O)[C@H]1CC[C@H]2C3=CC(=O)[C@@H]4C[C@@H](O)[C@@H](O)C[C@]4(C)C3=CC[C@]12C [Compound 5, 14-Deoxydacryhainansterone] |  |  | strong | agonists | IC50 ([1]; IC50, EcR binding, Sf-9 cells): 4.17e-08 M and 4.2e-08 M; EcR binding potency/affinity relative to 20E [1]: approximately 4 times |
| CC(C)CCC(=O)[C@](C)(O)[C@H]1CC[C@@]2(O)C3=CC(=O)[C@@H]4C[C@@H](O)[C@@H](O)C[C@]4(C)C3=CC[C@]12C [Compound 6, 22-Oxodacryhainansterone] |  |  | moderate | did not show agonistic activity | IC50 ([1]; IC50, EcR binding, Sf-9 cells): 3.8e-07 M; agonistic activity in reporter gene assay at 1 μM (EcR): agonists |
| CC(C)(O)CC[C@@H](O)[C@](C)(O)[C@H]1CC[C@H]2C3=CC(=O)[C@@H]4C[C@@H](O)[C@@H](O)C[C@]4(C)C3=CC[C@]12C [Compound 7, 14-Deoxy-25-hydroxydacryhainansterone] | 4.79e-07 |  | moderate | did not show agonistic activity | agonistic activity in reporter gene assay at 1 μM (EcR): agonists |
| CC(C)(O)CC[C@@H](O)[C@](C)(O)[C@H]1CC[C@H]2C3=CC(=O)[C@@H]4C[C@@H](O)[C@@H](O)C[C@]4(C)[C@H]3CC[C@]12C [Compound 8, 14-Deoxy-20-hydroxyecdysone] | 6.92e-08 |  |  | agonists | EcR binding potency/affinity relative to 20E [1]: 2.4 times |
| CC(C)(O)CC[C@@H](O)[C@](C)(O)[C@H]1CC[C@H]2C3=CC(=O)[C@H]4C[C@@H](O)[C@@H](O)C[C@]4(C)[C@H]3CC[C@]12C [Compound 9, 5α-14-Deoxy-20-hydroxyecdysone] | > 2.51e-05 | 0.93 | very weak activity |  |  |
| CC(C)(O)CC[C@@H](O)[C@](C)(O)[C@H]1CC[C@@H]2C3=CC(=O)[C@@H]4C[C@@H](O)[C@@H](O)C[C@]4(C)[C@H]3CC[C@@]21C [Compound 10, 14β-14-Deoxy-20-hydroxyecdysone] | > 2.51e-05 | 18.2 |  |  |  |
| CC(C)(O)CC[C@@H](O)[C@](C)(O)[C@H]1CC=C2C3=C(CC[C@@]21C)[C@@]1(C)C[C@H](O)[C@H](O)CC1=C(O)C3=O [Compound 11, calonysterone] | > 2.51e-05 | 0 |  |  |  |
| CC(C)CC[C@@H](O)[C@](C)(O)[C@H]1CC[C@@]2(O)C3=CC(=O)[C@@H]4C[C@@H](O)[C@@H](O)C[C@]4(C)C3=CC[C@]12C [Compound 12, dacryhainansterone] | 2.29e-08 |  | strong | agonists |  |
| CC1(C)CC[C@H]([C@](C)(O)[C@H]2CC[C@@]3(O)C4=CC(=O)[C@@H]5C[C@@H](O)[C@@H](O)C[C@]5(C)[C@H]4CC[C@]23C)O1 [Compound 13, shidasterone] | 2.51e-06 |  |  |  | agonistic activity in reporter gene assay at 1 μM (EcR): did not activate the reporter gene; agonist/antagonist classification (EcR): ecdysteroid antagonists |
| CC(C)CC[C@@H](O)[C@](C)(O)[C@H]1CC[C@@]2(O)C3=CC(=O)[C@@H]4C[C@@H](O)[C@@H](O)C[C@]4(C)[C@H]3[C@H](O)C[C@]12C [Compound 14, ajugasterone C] | 6.46e-07 |  |  | agonists |  |
| CC(C)(O)CC[C@@H](O)[C@](C)(O)[C@H]1CC[C@@]2(O)C3=CC(=O)[C@H]4C[C@@H](O)C[C@@H](O)[C@]4(C)[C@H]3CC[C@]12C [Compound 15, 5α-2-deoxyintegristerone A] | > 2.51e-05 | 2.42 | very weak activity |  |  |
| C/C(=N\O)[C@H]1CC[C@@]2(O)C3=CC(=O)[C@@H]4C[C@@H](O)[C@@H](O)C[C@]4(C)[C@H]3CC[C@]12C [Compound 16, poststerone 20(E)-oxime] | > 2.51e-05 | 4.3 |  |  |  |
| CC(C)(O)CC[C@@H](O)[C@](C)(O)[C@H]1CC[C@@]2(O)C3=C/C(=N/O)[C@@H]4C[C@@H](O)[C@@H](O)C[C@]4(C)[C@H]3CC[C@]12C [Compound 17, 20-hydroxyecdysone 6(Z)-oxime] | > 2.51e-05 | 4.53 |  |  |  |
| CC(C)(O)CC[C@@H](O)[C@](C)(O)[C@H]1CC[C@@]2(O)C3=C/C(=N\O)[C@@H]4C[C@@H](O)[C@@H](O)C[C@]4(C)[C@H]3CC[C@]12C [Compound 18, 20-hydroxyecdysone 6(E)-oxime] | ~2.51e-05 | 60.1 |  |  |  |
| CCC1(CC)O[C@H]2C[C@@]3(C)[C@@H](C[C@H]2O1)C(=O)C=C1[C@@H]3CC[C@]2(C)[C@@H]([C@@](C)(O)[C@H](O)CCC(C)(C)O)CC[C@@]12O [Compound 19, 28,28-diethyl-2,3-methylidene-20-hydroxyecdysone] | 3.02e-06 |  |  |  | agonistic activity in reporter gene assay at 1 μM (EcR): did not activate the reporter gene; agonist/antagonist classification (EcR): ecdysteroid antagonists |
| CC(C)(O)CC[C@@H](O)[C@](C)(O)[C@H]1CC[C@@]2(O)C3=CC(=O)[C@@H]4C[C@@H](O)[C@@H](O)C[C@]4(C)[C@@]3(O)CC[C@]12C [Compound 20, 9α,20-dihydroxyecdysone] | > 2.51e-05 | 45.7 |  |  |  |
| CC(C)(O)CC[C@@H](O)[C@](C)(O)[C@H]1CC[C@@]2(O)C3=CC(=O)[C@H]4C[C@@H](O)[C@@H](O)C[C@]4(C)[C@@]3(O)CC[C@]12C [Compound 21, 5α-9α,20-dihydroxyecdysone] | > 2.51e-05 | 27.1 | very weak activity |  |  |
| CC(C)CC[C@@H](O)[C@](C)(O)[C@H]1CC[C@@]2(O)C3=CC(=O)[C@@H]4C[C@@H](O)[C@@H](O)C[C@]4(C)[C@H]3CC[C@]12C [PonA, ponasterone A, reference compound] | 8.91e-09 |  |  |  |  |
